Numbered stars: 1 amine (or outer) side, 2 acyl side, 3 side chain; on linkers, the order of the positions; unused ones are H or OH. Bridge positions count the residues as written; N and C are the ends. Square brackets hold non-standard residues; d marks the D form. Peptide text beside a SMILES is read from it. * marks the point of attachment. ξ: configuration not given here. Phe(3-CF3) = N[C@@H](Cc1cccc(C(F)(F)F)c1)C(=O)O; Ala(morpholin-4-yl) = N[C@@H](CN1CCOCC1)C(=O)O; Phe(4-COOH) = N[C@@H](Cc1ccc(C(=O)O)cc1)C(=O)O; Bip = N[C@@H](Cc1ccc(-c2ccccc2)cc1)C(=O)O; NH(CH2)14COOH = O=C(O)CCCCCCCCCCCCCCN*; Phe(3-Me) = Cc1cccc(C[C@H](N)C(=O)O)c1; γGlu = O=C(O)[C@H](CCC(=O)[*:2])N[*:1]; NH(CH2)12COOH = O=C(O)CCCCCCCCCCCCN*; Val(3-OH) = CC(C)(O)[C@H](N)C(=O)O; X6 = O=C(Cc1ccc(CN[*:1])cc1)[*:2]; hArg = N=C(N)NCCCC[C@H](N)C(=O)O; 4Pal = N[C@@H](Cc1ccncc1)C(=O)O; Cha = N[C@@H](CC1CCCCC1)C(=O)O; Cit = NC(=O)NCCC[C@H](N)C(=O)O; Thr(3ξ) = CC(O)[C@H](N)C(=O)O; Carboxymethyl = O=C(O)C*; Orn = NCCC[C@H](N)C(=O)O; Pra = C#CC[C@H](N)C(=O)O; Aun = NCCCCCCCCCCC(=O)O; Dab = NCC[C@H](N)C(=O)O; Dap = NC[C@H](N)C(=O)O; AEEA = NCCOCCOCC(=O)O

This passage reports IC50 results from patent US20260022142A1, “MACROCYCLIC IMMUNOMODULATORS” (Bristol-Myers Squibb Company, priority 2022, published 2026).

The target of the test is T1, PD-1/PD-L1 interaction (PE-labeled human PD-L1-Ig binding to Jurkat cell line over-expressing human PD-1) (Homo sapiens, UniProt Q15116).
T1 construct: expressed in transfected cells; host or cells: Jurkat
T1 sequence (Q15116 25-288): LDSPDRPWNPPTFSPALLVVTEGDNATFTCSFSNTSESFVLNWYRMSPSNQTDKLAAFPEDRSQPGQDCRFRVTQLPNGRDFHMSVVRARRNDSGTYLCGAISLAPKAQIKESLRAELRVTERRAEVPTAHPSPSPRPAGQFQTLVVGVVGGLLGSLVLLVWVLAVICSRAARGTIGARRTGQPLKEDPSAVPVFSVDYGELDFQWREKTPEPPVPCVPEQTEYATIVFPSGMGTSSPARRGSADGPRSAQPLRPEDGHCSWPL
As to the kind of experiment: Jurkat-PD-1 Cell Binding High-Content Screening Assay (CBA). In kind it is cell-based. As to conditions: Jurkat cell line over-expressing human PD-1; PE-labeled PD-L1-Ig 20 nM final; read-out: Jurkat hPD1-PDL1 IC50. Put shortly: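 First, compound is added to PD-1-expressing Jurkat cells in serum-containing DMEM and left 2 h at 37° C. Next, PE-conjugated PD-L1-Ig is introduced at 20 nM final concentration for 1 hour. Finally, cells are fixed in 4% paraformaldehyde with Hoechst 33342, washed and imaged.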
Consider `CC(C)C[C@H]1NC(=O)[C@H](CCCN)NC(=O)[C@H](Cc2ccc(C(=O)O)cc2)NC(=O)[C@H](Cc2ccc(-c3ccccc3)cc2)NC(=O)[C@H](Cc2ccc(C(=O)O)cc2)NC(=O)[C@H](Cc2cccc(C(F)(F)F)c2)NC(=O)[C@H](CC(=O)O)NC(=O)[C@H](Cc2ccc(OCC(=O)O)cc2)NC(=O)[C@H](C)NC(=O)CSC[C@@H](C(=O)N[C@@H](CCN)C(=O)NCCOCCOCC(=O)N[C@@H](CCC(=O)NCCOCCOCC(=O)NCCCCCCCCCCCCC(=O)O)C(=O)O)NC(=O)[C@H](CO)NC(=O)[C@H](C(C)(C)O)NC(=O)[C@H](CC2CCCCC2)NC(=O)[C@H](CCN)NC1=O` [Compound 2934] ({CH2CO}-AY(Carboxymethyl)D[Phe(3-CF3)][Phe(4-COOH)][Bip][Phe(4-COOH)][Orn][dL][Dab][Cha][Val(3-OH)]SC[Dab][AEEA][γGlu][AEEA]-{NH(CH2)12COOH}; thioether N-14), for which the IC50 came out at 39 nM.

For `Cc1cccc(C[C@@H]2NC(=O)[C@H](CC(=O)O)NC(=O)[C@H](Cc3ccc(OCC(=O)O)cc3)NC(=O)[C@H](CN)NC(=O)CSC[C@@H](C(=O)N[C@@H](CCCCN)C(=O)NCc3ccc(CC(=O)NCCCCCCCCCCC(=O)O)cc3)NC(=O)[C@H](CN)NC(=O)[C@H](C(C)C)NC(=O)[C@H](CC3CCCCC3)NC(=O)[C@H](CCN)NC(=O)[C@@H](CC(C)C)NC(=O)[C@H](CCCN)NC(=O)[C@H](C(C)C)NC(=O)[C@H](Cc3ccc(-c4ccccc4)cc3)NC(=O)[C@H](C(C)C)NC2=O)c1` [Compound 2012] ({CH2CO}-[Dap]Y(Carboxymethyl)D[Phe(3-Me)]V[Bip]V[Orn][dL][Dab][Cha]V[Dap]CK[X6][Aun]-OH; thioether N-14), the IC50 was 46 nM.

On to `CC(C)C[C@H]1NC(=O)[C@H](CCCN)NC(=O)[C@H](Cc2ccc(O)cc2)NC(=O)[C@H](Cc2ccc(-c3ccccc3)cc2)NC(=O)[C@H](Cc2ccc(O)cc2)NC(=O)[C@H](Cc2c[nH]c3ccccc23)NC(=O)[C@H](CC(=O)O)NC(=O)[C@H](Cc2ccc(OCC(=O)O)cc2)NC(=O)[C@H](C(C)O)NC(=O)CSC[C@@H](C(=O)N[C@H](CC(N)=O)C(=O)NCCCCCCCCCCC(=O)O)NC(=O)[C@H](CCC(N)=O)NC(=O)[C@H](C(C)C)NC(=O)[C@H](CC2CCCCC2)NC(=O)[C@H](CCN)NC1=O` (stereo partly drawn) [Compound 3433] ({CH2CO}-[Thr(3ξ)]Y(Carboxymethyl)DWY[Bip]Y[Orn][dL][Dab][Cha]VQC[dN][Aun]-OH; thioether N-14), for which the IC50 was determined as 40.6 nM.

In the case of `Cc1cccc(C[C@@H]2NC(=O)[C@H](CC(=O)O)NC(=O)[C@H](Cc3ccc(OCC(=O)O)cc3)NC(=O)[C@H](CN)NC(=O)CSC[C@@H](C(=O)N[C@@H](CCN)C(=O)NCCCCCCCCCCC(=O)O)NC(=O)[C@H](CCCN)NC(=O)[C@H](Cc3ccc(O)cc3)NC(=O)[C@H](CC3CCCCC3)NC(=O)[C@H](CCN)NC(=O)[C@@H](CC(C)C)NC(=O)[C@H](CCCN)NC(=O)[C@H](Cc3ccc(O)cc3)NC(=O)[C@H](Cc3ccc(-c4ccccc4)cc3)NC(=O)[C@H](Cc3ccc(O)cc3)NC2=O)c1` [Compound 2511] ({CH2CO}-[Dap]Y(Carboxymethyl)D[Phe(3-Me)]Y[Bip]Y[Orn][dL][Dab][Cha]Y[Orn]C[Dab][Aun]-OH; thioether N-14), the IC50 was 50.1 nM.

Consider `CC(C)C[C@@H]1NC(=O)[C@H](Cc2c[nH]c3ccccc23)NC(=O)[C@H](CC(=O)O)NC(=O)[C@H](Cc2ccc(OCC(=O)O)cc2)NC(=O)[C@H](CCCCNC(=N)N)NC(=O)CSC[C@@H](C(=O)N[C@@H](C)C(=O)NCCOCCOCC(=O)N[C@@H](CCCCN)C(=O)NCCOCCOCC(=O)NCCCCCCCCCCCCCCC(=O)O)NC(=O)[C@H](CO)NC(=O)[C@H](C(C)C)NC(=O)[C@H](CC2CCCCC2)NC(=O)[C@H](CCN)NC(=O)[C@@H](CC(C)C)NC(=O)[C@H](CCCN)NC(=O)[C@H](C(C)C)NC(=O)[C@H](Cc2ccc(-c3ccccc3)cc2)NC1=O` [Compound 3006] ({CH2CO}-[hArg]Y(Carboxymethyl)DWL[Bip]V[Orn][dL][Dab][Cha]VSCA[AEEA]K[AEEA]-{NH(CH2)14COOH}; thioether N-14), for which the IC50 is 129 nM.

For the molecule `Cc1cccc(C[C@@H]2NC(=O)[C@H](CC(=O)O)NC(=O)[C@H](Cc3ccc(OCC(=O)O)cc3)NC(=O)[C@H](CCCNC(=N)N)NC(=O)CSC[C@@H](C(=O)N[C@@H](CCCN)C(=O)NCCCCCCCCCCC(=O)O)NC(=O)[C@H](CCC(N)=O)NC(=O)[C@H](C(C)C)NC(=O)[C@H](CC3CCCCC3)NC(=O)[C@H](CCN)NC(=O)[C@@H](CC(C)C)NC(=O)[C@H](CCN)NC(=O)[C@H](CCCNC(N)=O)NC(=O)[C@H](Cc3ccc(-c4ccccc4)cc3)NC(=O)[C@H](C(C)C)NC2=O)c1` [Compound 2798] ({CH2CO}-RY(Carboxymethyl)D[Phe(3-Me)]V[Bip][Cit][Dab][dL][Dab][Cha]VQC[Orn][Aun]-OH; thioether N-14), the IC50 came out at 7.1 nM.

For `CC(C)C[C@H]1NC(=O)[C@H](CCCN)NC(=O)[C@H](Cc2ccc(C(=O)O)cc2)NC(=O)[C@H](Cc2ccc(-c3ccccc3)cc2)NC(=O)[C@H](Cc2ccc(C(=O)O)cc2)NC(=O)[C@H](Cc2cccc(C(F)(F)F)c2)NC(=O)[C@H](CC(=O)O)NC(=O)[C@H](Cc2ccc(OCC(=O)O)cc2)NC(=O)[C@H](CN2CCOCC2)NC(=O)CSC[C@@H](C(=O)N[C@@H](CCN)C(=O)NCCOCCOCC(=O)NCCOCCOCC(=O)NCCCCCCCCCCCCC(=O)O)NC(=O)[C@H](CO)NC(=O)[C@H](C(C)(C)O)NC(=O)[C@H](CC2CCCCC2)NC(=O)[C@H](CCN)NC1=O` [Compound 2914] ({CH2CO}-[Ala(morpholin-4-yl)]Y(Carboxymethyl)D[Phe(3-CF3)][Phe(4-COOH)][Bip][Phe(4-COOH)][Orn][dL][Dab][Cha][Val(3-OH)]SC[Dab][AEEA][AEEA]-{NH(CH2)12COOH}; thioether N-14), the IC50 stood at 24 nM.

In the case of `CC(=O)NCCCC[C@@H]1NC(=O)[C@H](Cc2ccc(-c3ccccc3)cc2)NC(=O)[C@H](C(C)C)NC(=O)[C@H](Cc2cccc(C)c2)NC(=O)[C@H](CC(=O)O)NC(=O)[C@H](Cc2ccc(OCC(=O)O)cc2)NC(=O)[C@H](C(C)O)NC(=O)CSC[C@@H](C(=O)N[C@H](CC(N)=O)C(=O)NCCCCCCCCCCC(=O)O)NC(=O)[C@H](CCC(N)=O)NC(=O)[C@H](C(C)C)NC(=O)[C@H](CC2CCCCC2)NC(=O)[C@H](CCN)NC(=O)[C@@H](CC(C)C)NC(=O)[C@H](CCCN)NC1=O` (stereo partly drawn) [Compound 3437] ({CH2CO}-[Thr(3ξ)]Y(Carboxymethyl)D[Phe(3-Me)]V[Bip]K(Ac)[Orn][dL][Dab][Cha]VQC[dN][Aun]-OH; thioether N-14), the IC50 came to 11.2 nM.

As for `Cc1cccc(C[C@@H]2NC(=O)[C@H](CC(=O)O)NC(=O)[C@H](Cc3ccc(OCC(=O)O)cc3)NC(=O)[C@H](CCCNC(=N)N)NC(=O)CSC[C@@H](C(=O)N[C@H](CC(N)=O)C(=O)NCCCCCCCCCCC(=O)O)NC(=O)[C@H](CCC(N)=O)NC(=O)[C@H](C(C)C)NC(=O)[C@H](CC3CCCCC3)NC(=O)[C@H](CCN)NC(=O)[C@@H](CC(C)C)NC(=O)[C@H](CCCN)NC(=O)[C@H](CCCNC(N)=O)NC(=O)[C@H](Cc3ccc(-c4ccccc4)cc3)NC(=O)[C@H](C(C)C)NC2=O)c1` [Compound 3434] ({CH2CO}-RY(Carboxymethyl)D[Phe(3-Me)]V[Bip][Cit][Orn][dL][Dab][Cha]VQC[dN][Aun]-OH; thioether N-14), the IC50 was found to be 10.5 nM.

Regarding `Cc1cccc(C[C@@H]2NC(=O)[C@H](CC(=O)O)NC(=O)[C@H](Cc3ccc(OCC(=O)O)cc3)NC(=O)[C@H](Cc3ccc(OCC(=O)O)cc3)NC(=O)CSC[C@@H](C(=O)N[C@@H](CCCCN)C(=O)NCCCCCCCCCCC(=O)O)NC(=O)[C@H](CO)NC(=O)[C@H](C(C)C)NC(=O)[C@H](CC(C)C)NC(=O)[C@H](CCN)NC(=O)[C@@H](CC(C)C)NC(=O)[C@H](CCCN)NC(=O)[C@H](C(C)C)NC(=O)[C@H](Cc3ccc(-c4ccccc4)cc3)NC(=O)[C@@H](CC(C)C)NC2=O)c1` [Compound 1142] ({CH2CO}-Y(Carboxymethyl)Y(Carboxymethyl)D[Phe(3-Me)][dL][Bip]V[Orn][dL][Dab]LVSCK[Aun]-OH; thioether N-14), the IC50 is 54.9 nM.

Turning to `C#CC[C@H](NC(=O)COCCOCCNC(=O)[C@H](CCCN)NC(=O)[C@@H]1CSCC(=O)N[C@@H](Cc2ccncc2)C(=O)N[C@@H](Cc2ccc(OCC(=O)O)cc2)C(=O)N[C@@H](CC(=O)O)C(=O)N[C@@H](Cc2c[nH]c3ccccc23)C(=O)N[C@@H](C(C)C)C(=O)N[C@@H](Cc2ccc(-c3ccccc3)cc2)C(=O)N[C@@H]([C@@H](C)CC)C(=O)N[C@@H](CCCN)C(=O)N[C@H](CC(C)C)C(=O)N[C@@H](CCN)C(=O)N[C@@H](CC(C)C)C(=O)N[C@@H](C(C)C)C(=O)N[C@@H]([C@@H](C)O)C(=O)N1)C(=O)NCCCCCCCCCCC(=O)O` [Compound 1207] ({CH2CO}-[4Pal]Y(Carboxymethyl)DWV[Bip]I[Orn][dL][Dab]LVTC[Orn][AEEA][Pra][Aun]-OH; thioether N-14), the IC50 worked out at 28.5 nM.

As for `CC(C)C[C@H]1NC(=O)[C@H](CCCN)NC(=O)[C@H](C(C)C)NC(=O)[C@H](Cc2ccc(-c3ccccc3)cc2)NC(=O)[C@H](C(C)C)NC(=O)[C@H](Cc2c[nH]c3ccccc23)NC(=O)[C@H](CC(=O)O)NC(=O)[C@H](Cc2ccc(OCC(=O)O)cc2)NC(=O)[C@H](Cc2ccc(OCC(=O)O)cc2)NC(=O)CSC[C@@H](C(=O)NCCOCCOCC(=O)N[C@@H](CCN)C(=O)NCCCCCCCCCCC(=O)O)NC(=O)[C@H](CCCN)NC(=O)[C@H](C(C)C)NC(=O)[C@H](CC2CCCCC2)NC(=O)[C@H](CCN)NC1=O` [Compound 2545] ({CH2CO}-Y(Carboxymethyl)Y(Carboxymethyl)DWV[Bip]V[Orn][dL][Dab][Cha]V[Orn]C[AEEA][Dab][Aun]-OH; thioether N-14), the IC50 was 7.4 nM.

As a reminder, the IC50 is the concentration needed to halve the response being measured.
